In the test the target is T1, Glutamate--cysteine ligase catalytic subunit (Homo sapiens, UniProt P48506).
T1 sequence (P48506 whole entry): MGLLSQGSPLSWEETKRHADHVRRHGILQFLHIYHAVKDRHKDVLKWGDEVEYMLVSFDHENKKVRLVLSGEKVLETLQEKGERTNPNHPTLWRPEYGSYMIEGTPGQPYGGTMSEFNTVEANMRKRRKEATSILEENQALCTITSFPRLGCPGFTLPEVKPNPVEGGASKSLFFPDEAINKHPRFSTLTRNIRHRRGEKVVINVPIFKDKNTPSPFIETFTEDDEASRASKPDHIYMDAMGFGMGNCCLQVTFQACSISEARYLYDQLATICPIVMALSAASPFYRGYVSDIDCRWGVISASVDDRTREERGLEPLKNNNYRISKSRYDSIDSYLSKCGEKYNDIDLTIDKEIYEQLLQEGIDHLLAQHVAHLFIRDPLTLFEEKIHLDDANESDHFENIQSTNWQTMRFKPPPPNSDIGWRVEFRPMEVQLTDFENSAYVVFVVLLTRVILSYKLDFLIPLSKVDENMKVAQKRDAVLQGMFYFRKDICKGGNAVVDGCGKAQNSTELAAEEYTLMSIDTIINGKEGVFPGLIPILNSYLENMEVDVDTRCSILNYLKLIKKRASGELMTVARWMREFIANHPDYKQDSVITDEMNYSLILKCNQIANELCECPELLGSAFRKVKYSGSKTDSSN
Briefly: GCL Enzyme Profiling Assay. The protocol:
Compound in pure DMSO was stamped in assay plates (Greiner black 384-well) or appropriate containers using a D300e digital dispenser (TECAN) and the final DMSO concentration was normalized to 1%. A 5 mL, or in the present case, 5 μL mixture of human recombinant GCL (final concentration: 5 nM) and ATP (final concentration: 0.6 mM) was added and the solution was incubated at room temperature (22° C.) for 1 h. […] The reaction was stopped after 1 h or in the present case, 2 h by addition of 5 mL, or in the present case, 5 μL ADP GLO Reagent (Promega). The resulting solution was incubated for 2 h at room temperature. This was then followed by addition of 5 mL, or in the present case, 5 μL ADP GLO Detection. After incubation at room temperature for 30 min, the plates were read on a plate reader (PheraStar) using a luminescence protocol to quantify the GCL enzyme activity from each reaction solution.
By IC50 is commonly meant the concentration that inhibits the measured activity by half. Read a high IC50 as lower potency. Turning to `N=S(=O)(CCc1cccc(Cl)c1F)CC[C@H](N)C(=O)O` (stereo partly drawn) [US20260034094, Compound 28], the IC50 is less than 20 µM. For the compound `CC(C)(C)CCS(=N)(=O)CC[C@H](N)C(=O)Nc1nccs1` (stereo partly drawn) [US20260034094, Compound 121], the IC50 was greater than 2000 µM. For the compound `N=S(=O)(CCC(c1ccc(-c2ccccc2F)cc1)C(F)(F)F)CC[C@H](N)C(=O)O` (stereo partly drawn) [US20260034094, Compound 217], the IC50 is less than 20 µM. Regarding `N=S(=O)(CCC(c1ccc(C2CC2)cc1)C(F)(F)F)CC[C@H](N)C(=O)O` (stereo partly drawn) [US20260034094, Compound 225], the IC50 is less than 20 µM. As for `N=S(=O)(CCC(c1ccc(-c2ccc(Br)cc2)cc1)C(F)(F)F)CC[C@H](N)C(=O)O` (stereo partly drawn) [US20260034094, Compound 226], the figure is less than 20 µM; as for `N=S(=O)(CCC(c1ccc(-c2cn[nH]c2)cc1)C(F)(F)F)CC[C@H](N)C(=O)O` (stereo partly drawn) [US20260034094, Compound 227], less than 20 µM.

Compound `N=S(=O)(CCC(c1ccc(-c2cc[nH]n2)cc1)C(F)(F)F)CC[C@H](N)C(=O)O` (stereo partly drawn) [US20260034094, Compound 228] came in with an IC50 of less than 20 µM. For `N=S(=O)(CCC(c1ccc(-c2cccc(C(N)=O)c2)cc1)C(F)(F)F)CC[C@H](N)C(=O)O` (stereo partly drawn) [US20260034094, Compound 229], the IC50 is less than 20 µM.

Regarding `CNC(=O)c1cccc(-c2ccc(C(CCS(=N)(=O)CC[C@H](N)C(=O)O)C(F)(F)F)cc2)c1` (stereo partly drawn) [US20260034094, Compound 230], the IC50 is less than 20 µM. The compound `N=S(=O)(CCC(c1ccc(-c2ccc(C(F)F)cc2)cc1)C(F)(F)F)CC[C@H](N)C(=O)O` (stereo partly drawn) [US20260034094, Compound 231] yielded an IC50 of less than 20 µM. Consider `N=S(=O)(CCC(c1ccc(-c2ccccc2O)cc1)C(F)(F)F)CC[C@H](N)C(=O)O` (stereo partly drawn) [US20260034094, Compound 235], for which the IC50 is less than 20 µM. As for `CC(C)(O)c1cccc(-c2ccc(C(CCS(=N)(=O)CC[C@H](N)C(=O)O)C(F)(F)F)cc2)c1` (stereo partly drawn) [US20260034094, Compound 241], the figure is less than 20 µM; as for `N=S(=O)(CCC(c1ccc(-c2cccnc2)cc1)C(F)(F)F)CC[C@H](N)C(=O)O` (stereo partly drawn) [US20260034094, Compound 243], less than 20 µM; as for `N=S(=O)(CCC(c1ccc(-c2ccc(C(N)=O)nc2)cc1)C(F)(F)F)CC[C@H](N)C(=O)O` (stereo partly drawn) [US20260034094, Compound 245], less than 20 µM. Compound `Cc1ccc(-c2ccc(C(CCS(=N)(=O)CC[C@H](N)C(=O)O)C(F)(F)F)cc2)cn1` (stereo partly drawn) [US20260034094, Compound 246] gave an IC50 of less than 20 µM.

`Cc1nc(Cl)ccc1-c1ccc(C(CCS(=N)(=O)CC[C@H](N)C(=O)O)C(F)(F)F)cc1` (stereo partly drawn) [US20260034094, Compound 248] gave a half-inhibitory concentration (IC50) of less than 20 µM.

For the compound `CN1CCN(c2ccc(-c3ccc(C(CCS(=N)(=O)CC[C@H](N)C(=O)O)C(F)(F)F)cc3)cn2)CC1` (stereo partly drawn) [US20260034094, Compound 249], the IC50 was less than 20 µM. `N=S(=O)(CCC(c1ccc(-c2cnc(N)nc2)cc1)C(F)(F)F)CC[C@H](N)C(=O)O` (stereo partly drawn) [US20260034094, Compound 251] yielded an IC50 of less than 20 µM. As for `N=S(=O)(CCC(c1ccc(-c2cnc(C3CC3)nc2)cc1)C(F)(F)F)CC[C@H](N)C(=O)O` (stereo partly drawn) [US20260034094, Compound 252], the IC50 was less than 20 µM.

Compound `N=S(=O)(CCC(c1ccc(-c2cnc3[nH]ccc3c2)cc1)C(F)(F)F)CC[C@H](N)C(=O)O` (stereo partly drawn) [US20260034094, Compound 253] yielded an IC50 of less than 20 µM. The result for `N=S(=O)(CCC(c1ccc(-c2cnc3[nH]ncc3c2)cc1)C(F)(F)F)CC[C@H](N)C(=O)O` (stereo partly drawn) [US20260034094, Compound 254] reads less than 20 µM; that for `N=S(=O)(CCC(c1ccc(-c2ccc3cn[nH]c3c2)cc1)C(F)(F)F)CC[C@H](N)C(=O)O` (stereo partly drawn) [US20260034094, Compound 255], less than 20 µM. `N=S(=O)(CCC(c1ccc(-c2ccc(Cl)s2)cc1)C(F)(F)F)CC[C@H](N)C(=O)O` (stereo partly drawn) [US20260034094, Compound 256]: the IC50 is less than 20 µM.

`N=S(=O)(CCC(c1ccc(-c2ccsc2)cc1)C(F)(F)F)CC[C@H](N)C(=O)O` (stereo partly drawn) [US20260034094, Compound 257] gave an IC50 of less than 20 µM.

`N=S(=O)(CCC(c1ccc(-c2ccoc2)cc1)C(F)(F)F)CC[C@H](N)C(=O)O` (stereo partly drawn) [US20260034094, Compound 258] gave an IC50 of less than 20 µM. As for `N=S(=O)(CCC(c1ccc(C2=CCNCC2)cc1)C(F)(F)F)CC[C@H](N)C(=O)O` (stereo partly drawn) [US20260034094, Compound 259], the concentration for half-maximal inhibition (IC50) is less than 20 µM. The result for `C=C(c1ccc(C(CCS(=N)(=O)CC[C@H](N)C(=O)O)C(F)(F)F)cc1)C(F)(F)F` (stereo partly drawn) [US20260034094, Compound 260] reads less than 20 µM; that for `C=Cc1ccc(C(CCS(=N)(=O)CC[C@H](N)C(=O)O)C(F)(F)F)cc1` (stereo partly drawn) [US20260034094, Compound 261], less than 20 µM. As for `C=C(C)c1ccc(C(CCS(=N)(=O)CC[C@H](N)C(=O)O)C(F)(F)F)cc1` (stereo partly drawn) [US20260034094, Compound 262], the IC50 is less than 20 µM. As for `CC(C)(O)c1ccc(C(CCS(=N)(=O)CC[C@H](N)C(=O)O)C(F)(F)F)cc1` (stereo partly drawn) [US20260034094, Compound 263], the figure is less than 20 µM; as for `COc1ccccc1-c1ccc(C(CCS(=N)(=O)CC[C@H](N)C(=O)O)C(F)(F)F)cc1` (stereo partly drawn) [US20260034094, Compound 264], less than 20 µM; as for `Cc1ccccc1-c1ccc(C(CCS(=N)(=O)CC[C@H](N)C(=O)O)C(F)(F)F)cc1` (stereo partly drawn) [US20260034094, Compound 265], less than 20 µM. In the case of `CC(C)c1ccccc1-c1ccc(C(CCS(=N)(=O)CC[C@H](N)C(=O)O)C(F)(F)F)cc1` (stereo partly drawn) [US20260034094, Compound 266], the IC50 was less than 20 µM.

As for `N=S(=O)(CCC(c1ccc(-c2ccccc2C(F)(F)F)cc1)C(F)(F)F)CC[C@H](N)C(=O)O` (stereo partly drawn) [US20260034094, Compound 267], the IC50 was less than 20 µM. Compound `COc1ccc(-c2ccc(C(CCS(=N)(=O)CC[C@H](N)C(=O)O)C(F)(F)F)cc2)c(Cl)c1` (stereo partly drawn) [US20260034094, Compound 268] gave an IC50 of less than 20 µM. For `N=S(=O)(CCC(c1ccc(-c2ccc(Cl)cc2Cl)cc1)C(F)(F)F)CC[C@H](N)C(=O)O` (stereo partly drawn) [US20260034094, Compound 269], the IC50 was less than 20 µM. Consider `N=S(=O)(CCC(c1ccc(-c2ccc(O)cc2Cl)cc1)C(F)(F)F)CC[C@H](N)C(=O)O` (stereo partly drawn) [US20260034094, Compound 270], for which the IC50 was less than 20 µM. The compound `N=S(=O)(CCC(c1ccc(-c2ccc(F)cc2Cl)cc1)C(F)(F)F)CC[C@H](N)C(=O)O` (stereo partly drawn) [US20260034094, Compound 271] came in with an IC50 of less than 20 µM.

Take `C#Cc1ccc(C(CCS(=N)(=O)CC[C@H](N)C(=O)O)C(F)(F)F)cc1` (stereo partly drawn) [US20260034094, Compound 272]: the IC50 was less than 20 µM.

On to `N=S(=O)(CCC(c1cccc(C#Cc2ccccc2)c1)C(F)(F)F)CC[C@H](N)C(=O)O` (stereo partly drawn) [US20260034094, Compound 273], for which the IC50 is less than 20 µM. The compound `Cc1cc(Cl)ccc1-c1ccc(C(CCS(=N)(=O)CC[C@H](N)C(=O)O)C(F)(F)F)cc1` (stereo partly drawn) [US20260034094, Compound 275] had an IC50 of less than 20 µM. `N=S(=O)(CCC(c1ccc(-c2ccc(Cl)cc2)cc1)C(F)(F)F)CC[C@H](N)C(=O)O` (stereo partly drawn) [US20260034094, Compound 277] displayed an IC50 of less than 20 µM.

On to `Cc1cc(F)ccc1-c1ccc(C(CCS(=N)(=O)CC[C@H](N)C(=O)O)C(F)(F)F)cc1` (stereo partly drawn) [US20260034094, Compound 278], for which the IC50 was less than 20 µM.

Values taken from BindingDB's records for patent US20260034094 (Kojin Therapeutics, 2026).
